Literature values, collected in patent US20110059177A1, “Cardioplegia Solution for Cardiac Surgery” (priority 2008, published 2011).

Legend:
[1] = tested on: common carotid artery IMT (intima-media thickness); conditions: patients with coronary artery disease, 6 months

Row | activity level relative to tetracycline (150 mg of minocycline vs 250 mg of tetracycline at 24-48 hours) | serum levels relative to most other tetracyclines (result of long half-life) | SMILES | common carotid artery IMT (intima-media thickness) [1] | markers of inflammation [1]
1 |  |  | CCOC(=O)C1=C(C)NC(C)=C(C(=O)OCC)C1c1ccccc1/C=C/C(=O)OC(C)(C)C [Lacidipine] | significant reduction | decrease
2 | 16 times | 2-4 times | CN(C)c1ccc(O)c2c1C[C@H]1C[C@H]3[C@H](N(C)C)C(O)=C(C(N)=O)C(=O)[C@@]3(O)C(O)=C1C2=O [Minocycline] |  | 
